The record followed here is patent US20060276464A1, “Diarylsulfone sulfonamides and use thereof” (Wyeth, priority 2005, published 2006).

Assay [1] has as its target T1, SFRP-1 (Homo sapiens, UniProt Q8N474).
T1 sequence (Q8N474 32-314): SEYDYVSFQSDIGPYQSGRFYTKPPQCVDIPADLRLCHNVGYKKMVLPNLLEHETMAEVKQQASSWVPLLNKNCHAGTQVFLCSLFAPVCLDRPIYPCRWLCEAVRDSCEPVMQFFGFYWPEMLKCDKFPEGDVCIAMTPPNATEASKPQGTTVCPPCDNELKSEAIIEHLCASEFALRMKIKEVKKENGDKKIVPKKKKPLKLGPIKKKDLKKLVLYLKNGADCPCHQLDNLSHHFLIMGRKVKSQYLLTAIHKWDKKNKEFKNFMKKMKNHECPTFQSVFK
In words: Cell-based assay for in vitro measurement of SFRP-1/SARP2 antagonist activity (U2OS cells co-transfected with 16x TCF-tk-Luciferase reporter, Wnt and hSFRP-1).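 Also: U2OS cells co-transfected with a TCF-tk luciferase reporter, a Wnt vector, hSFRP-1 or empty vector and CMV-βgal, luciferase luminescence read in cell lysates alongside βgal activity.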

Assay [2] deals with T1, SFRP-1. Kind of assay: Fluorescence polarization binding assay (competitive displacement of a probe compound from SFRP-1).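 Also: test compound competes with a fluorescent probe held by SFRP-1, seen as a drop in probe anisotropy after incubation in darkness, with anisotropy as function of rising compound dose.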 Particulars: fluorescence anisotropy, 45 nM SFRP-1, 20 nM probe.

`CN(CCNS(=O)(=O)c1cc(S(=O)(=O)c2ccccc2)ccc1C(F)(F)F)C(=O)c1ccc(CP(=O)(O)O)cc1` [Example 1036, [4-({methyl[2-({[5-(phenylsulfonyl)-2-(trifluoromethyl)phenyl]sulfonyl}amino)ethyl]amino}carbonyl)benzyl]phosphonic acid]: on SFRP-1 [1], the EC50 was determined as 7640 nM. In addition, the IC50 on SFRP-1 [2] was found to be 800 nM.

At SFRP-1 [1], `COC(=O)c1ccc2c(c1)CC(NS(=O)(=O)c1cc(S(=O)(=O)c3ccccc3)ccc1C(F)(F)F)C2` (centres unmarked) [Example 1037, methyl 2-({[5-(phenylsulfonyl)-2-(trifluoromethyl)phenyl]sulfonyl}amino)indane-5-carboxylate] yielded an EC50 of 3810 nM. Also, the IC50 on SFRP-1 [2] came to 80 nM.

Take `C[C@H](C(N)=O)N1CCC(NS(=O)(=O)c2cc(S(=O)(=O)c3ccccc3)ccc2C(F)(F)F)CC1` [Example 1038, (2R)-2-[4-({[5-(phenylsulfonyl)-2-(trifluoromethyl)phenyl]sulfonyl}amino)piperidin-1-yl]propanamide]: on SFRP-1 [1], it took 331 nM to reach a half-maximal effect (EC50). At SFRP-1 [2], this compound came in with an IC50 of 100 nM.

As to `C[C@@H](C(N)=O)N1CCC(NS(=O)(=O)c2cc(S(=O)(=O)c3ccccc3)ccc2C(F)(F)F)CC1` [Example 1039, (2S)-2-[4-({[5-(phenylsulfonyl)-2-(trifluoromethyl)phenyl]sulfonyl}amino)piperidin-1-yl]propanamide], it took 244 nM to reach a half-maximal effect on SFRP-1 [1] (EC50). The IC50 at SFRP-1 [2] was 400 nM.

For the compound `O=C(c1ccc(=O)[nH]c1)N1CCC(NS(=O)(=O)c2cc(S(=O)(=O)c3ccccc3)ccc2C(F)(F)F)CC1` [Example 1040, N-{1-[(6-oxo-1,6-dihydropyridin-3-yl)carbonyl]piperidin-4-yl}-5-(phenylsulfonyl)-2-(trifluoromethyl)benzenesulfonamide], the EC50 on SFRP-1 [1] was 217 nM. Moreover, the IC50 at SFRP-1 [2] came to 140 nM.

In turn, `COc1ccc2c(c1)C(O)C(NS(=O)(=O)c1cc(S(=O)(=O)c3ccccc3)ccc1C(F)(F)F)C2` (centres unmarked) [Example 1044, N-(1-hydroxy-6-methoxy-2,3-dihydro-1H-inden-2-yl)-5-(phenylsulfonyl)-2-(trifluoromethyl)benzenesulfonamide] had an EC50 on SFRP-1 [1] of 1340 nM. Further, the IC50 on SFRP-1 [2] is 500 nM.

Compound `CC(C)(C)OC(=O)N1CCC(NC(=O)NCCNS(=O)(=O)c2cc(S(=O)(=O)c3ccccc3)ccc2C(F)(F)F)CC1` [Example 1046, tert-butyl 4-[({[2-({[5-(phenylsulfonyl)-2-(trifluoromethyl)phenyl]sulfonyl}amino)ethyl]amino}carbonyl)amino]piperidine-1-carboxylate] came in with an EC50 at SFRP-1 [1] of 3440 nM. For the same compound, at SFRP-1 [2], the IC50 was 800 nM.

`CSc1ccc(C(=O)N2CCC(NS(=O)(=O)c3cc(S(=O)(=O)c4ccccc4)ccc3C(F)(F)F)CC2)cc1` [Example 1050, N-{1-[4-(methylthio)benzoyl]piperidin-4-yl}-5-(phenylsulfonyl)-2-(trifluoromethyl)benzenesulfonamide] yielded an EC50 on SFRP-1 [1] of 660 nM. At SFRP-1 [2], this compound returned an IC50 of 170 nM.

With `C[S+]([O-])c1ccc(C(=O)N2CCC(NS(=O)(=O)c3cc(S(=O)(=O)c4ccccc4)ccc3C(F)(F)F)CC2)cc1` (centres unmarked) [Example 1052, N-{1-[4-(Methylsulfinyl)benzoyl]piperidin-4-yl}-5-(phenylsulfonyl)-2-(trifluoromethyl)benzenesulfonamide], at SFRP-1 [1], the EC50 came to 155 nM. The IC50 on SFRP-1 [2] is 90 nM.

Turning to `CSCCC(=O)N1CCC(NS(=O)(=O)c2cc(S(=O)(=O)c3ccccc3)ccc2C(F)(F)F)CC1` [Example 1053, N-{1-[3-(methylthio)propanoyl]piperidin-4-yl}-5-(phenylsulfonyl)-2-(trifluoromethyl)benzenesulfonamide], the EC50 at SFRP-1 [1] was determined as 190 nM. The compound further yielded an IC50 at SFRP-1 [2] of 40 nM.

On SFRP-1 [1], `C[S+]([O-])CCC(=O)N1CCC(NS(=O)(=O)c2cc(S(=O)(=O)c3ccccc3)ccc2C(F)(F)F)CC1` (centres unmarked) [Example 1054, N-{1-[3-(methylsulfinyl)propanoyl]piperidin-4-yl}-5-(phenylsulfonyl)-2-(trifluoromethyl)benzenesulfonamide] came in with an EC50 of 717 nM. The compound further registered a 50% inhibitory concentration (IC50) on SFRP-1 [2] of 40 nM.

Regarding `CC(C)(C)OC(=O)N1CSC[C@H]1C(=O)N1CCC(NS(=O)(=O)c2cc(S(=O)(=O)c3ccccc3)ccc2C(F)(F)F)CC1` [Example 1055, tert-butyl (4R)-4-{[4-({[5-(phenylsulfonyl)-2-(trifluoromethyl)phenyl]sulfonyl}amino)piperidin-1-yl]carbonyl}-1,3-thiazolidine-3-carboxylate], the EC50 on SFRP-1 [1] amounted to 96 nM. At SFRP-1 [2], this compound showed an IC50 of 50 nM.

The compound `O=C([C@@H]1CSCN1)N1CCC(NS(=O)(=O)c2cc(S(=O)(=O)c3ccccc3)ccc2C(F)(F)F)CC1` [Example 1056, 5-(phenylsulfonyl)-N-{1-[(4R)-1,3-thiazolidin-4-ylcarbonyl]piperidin-4-yl}-2-(trifluoromethyl)benzenesulfonamide] gave an EC50 at SFRP-1 [1] of 294 nM. For the same compound, at SFRP-1 [2], the half-maximal inhibitory concentration (IC50) worked out at 40 nM.

With `CC(C)(C)OC(=O)N1C[S+]([O-])C[C@H]1C(=O)N1CCC(NS(=O)(=O)c2cc(S(=O)(=O)c3ccccc3)ccc2C(F)(F)F)CC1` (stereo partly drawn) [Example 1061, tert-butyl (4R)-4-{[4-({[5-(phenylsulfonyl)-2-(trifluoromethyl)phenyl]sulfonyl}amino)piperidin-1-yl]carbonyl}-1,3-thiazolidine-3-carboxylate 1-oxide], it took 78 nM to reach a half-maximal effect at SFRP-1 [1] (EC50). This compound registered an IC50 on SFRP-1 [2] of 20 nM.

At SFRP-1 [1], `NC(=O)COc1ccc2c(c1)CC(NS(=O)(=O)c1cc(S(=O)(=O)c3ccccc3)ccc1C(F)(F)F)C2` (centres unmarked) [Example 1062, 2-{[2-({[5-(phenylsulfonyl)-2-(trifluoromethyl)phenyl]sulfonyl}amino)-2,3-dihydro-1H-inden-5-yl]oxy}acetamide] gave an EC50 of 34 nM. The compound also came in with an IC50 at SFRP-1 [2] of 10 nM.

At SFRP-1 [1], `COC(=O)CN1CCC(NS(=O)(=O)c2cc(S(=O)(=O)c3ccccc3)ccc2C(F)(F)F)CC1` [Example 1063, methyl [4-({[5-(phenylsulfonyl)-2-(trifluoromethyl)phenyl]sulfonyl)amino)piperidin-1-yl]acetate] registered a 50% effective concentration (EC50) of 455 nM. Besides, on SFRP-1 [2], the IC50 worked out at 140 nM.

In the case of `CC(=O)N1CC[C@@H](C(=O)N2CCC(NS(=O)(=O)c3cc(S(=O)(=O)c4ccccc4)ccc3C(F)(F)F)CC2)C1` [Example 1064, N-(1-{[(3R)-1-acetylpyrrolidin-3-yl]carbonyl}piperidin-4-yl)-5-(phenylsulfonyl)-2-(trifluoromethyl)benzenesulfonamide], the 50% effective concentration (EC50) on SFRP-1 [1] came to 193 nM. Besides, the IC50 on SFRP-1 [2] was found to be 60 nM.

`CC(=O)N1CC[C@H](C(=O)N2CCC(NS(=O)(=O)c3cc(S(=O)(=O)c4ccccc4)ccc3C(F)(F)F)CC2)C1` [Example 1065, N-(1-{[(3S)-1-acetylpyrrolidin-3-yl]carbonyl}piperidin-4-yl)-5-(phenylsulfonyl)-2-(trifluoromethyl)benzenesulfonamide] showed an EC50 on SFRP-1 [1] of 167 nM. Also, the half-maximal inhibitory concentration (IC50) on SFRP-1 [2] was determined as 50 nM.

On SFRP-1 [1], `CC(C)(C)OC(=O)N1CCC(NS(=O)(=O)c2cc(S(=O)(=O)c3ccc(C(=O)O)cc3)ccc2C(F)(F)F)CC1` [Example 1066, 4-{[3-({[1-(tert-butoxycarbonyl)piperidin-4-yl]amino}sulfonyl)-4-(trifluoromethyl)phenyl]sulfonyl}benzoic acid] came in with a concentration for a half-maximal effect (EC50) of 615 nM. The IC50 at SFRP-1 [2] was 240 nM.

As to `CS(=O)(=O)N1CCC[C@H]1C(=O)N1CCC(NS(=O)(=O)c2cc(S(=O)(=O)c3ccccc3)ccc2C(F)(F)F)CC1` [Example 1075, N-{1-[1-(methylsulfonyl)-L-prolyl]piperidin-4-yl}-5-(phenylsulfonyl)-2-(trifluoromethyl)benzenesulfonamide], it took 114 nM to reach a half-maximal effect at SFRP-1 [1] (EC50). Moreover, the IC50 on SFRP-1 [2] was found to be 30 nM.

With `O=C([C@@H]1CCCN1C(=O)c1ccc(Cl)nc1)N1CCC(NS(=O)(=O)c2cc(S(=O)(=O)c3ccccc3)ccc2C(F)(F)F)CC1` [Example 1079, N-(1-{1-[(6-chloropyridin-3-yl)carbonyl]-L-prolyl}piperidin-4-yl)-5-(phenylsulfonyl)-2-(trifluoromethyl)benzenesulfonamide], on SFRP-1 [1], it took 329 nM to reach a half-maximal effect (EC50). The compound further displayed an IC50 on SFRP-1 [2] of 40 nM.

Take `O=C(O)c1ccc(S(=O)(=O)N2CCC[C@H]2C(=O)N2CCC(NS(=O)(=O)c3cc(S(=O)(=O)c4ccccc4)ccc3C(F)(F)F)CC2)cc1` [Example 1080, 4-[((2S)-2-{[4-({[5-(phenylsulfonyl)-2-(trifluoromethyl)phenyl]sulfonyl}amino)piperidin-1-yl]carbonyl}pyrrolidin-1-yl)sulfonyl]benzoic acid]: on SFRP-1 [1], the 50% effective concentration (EC50) worked out at 386 nM. Moreover, at SFRP-1 [2], the IC50 amounted to 30 nM.

With `O=C(O)c1ccc2c(c1)CC(NS(=O)(=O)c1cc(S(=O)(=O)c3ccccc3)ccc1C(F)(F)F)C2` (centres unmarked) [Example 1082, 2-({[5-(phenylsulfonyl)-2-(trifluoromethyl)phenyl]sulfonyl}amino)indane-5-carboxylic acid], the midpoint of the response at SFRP-1 [1], the EC50, lay at 289 nM. The compound further had an IC50 at SFRP-1 [2] of 16 nM.

`CNC(=O)CN1CCC(NS(=O)(=O)c2cc(S(=O)(=O)c3ccccc3)ccc2C(F)(F)F)CC1` [Example 1083, N-methyl-2-[4-({[5-(phenylsulfonyl)-2-(trifluoromethyl)phenyl]sulfonyl}amino)piperidin-1-yl]acetamide] returned an EC50 on SFRP-1 [1] of 366 nM. At SFRP-1 [2], this compound came in with a concentration for half-maximal inhibition (IC50) of 150 nM.

As to `CN(C)C(=O)CN1CCC(NS(=O)(=O)c2cc(S(=O)(=O)c3ccccc3)ccc2C(F)(F)F)CC1` [Example 1085, N,N-dimethyl-2-[4-({[5-(phenylsulfonyl)-2-(trifluoromethyl)phenyl]sulfonyl}amino)piperidin-1-yl]acetamide], a half-maximal effect on SFRP-1 [1] (EC50) was put at 746 nM. Moreover, at SFRP-1 [2], the IC50 is 150 nM.

By EC50 is commonly meant the concentration at which the effect is half-maximal. Read a low EC50 as greater potency. Broadly, the IC50 is the midpoint of a concentration-inhibition curve. A high value points to lower potency.
